Activity calls are given as the source filed them. The rule behind the calls is not given here.
Experiments:
Candida albicans [1] = test: Antifungal activity against Candida albicans ATCC 90028 assessed as planktonic growth inhibition at 0.62 uM after 48 hrs by M27-A3 protocol based method relative to control; type: functional; settings: ATCC 90028, 48 h, read-out: GI
Candida albicans [2] = test: Antifungal activity against Candida albicans ATCC 90028 assessed as planktonic growth inhibition at 0.16 uM after 48 hrs by M27-A3 protocol based method relative to control; type: functional; settings: ATCC 90028, 48 h, read-out: GI
Candida albicans [3] = test: Antifungal activity against Candida albicans ATCC 90028 assessed as planktonic growth inhibition at 0.31 uM after 48 hrs by M27-A3 protocol based method relative to control; type: functional; settings: ATCC 90028, 48 h, read-out: GI
Candida albicans [4] = test: Antifungal activity against Candida albicans ATCC 90028 assessed as planktonic growth inhibition at 0.08 uM after 48 hrs by M27-A3 protocol based method relative to control; type: functional; settings: ATCC 90028, 48 h, read-out: GI
Candida albicans [5] = test: Antifungal activity against Candida albicans ATCC 90028 assessed as planktonic growth inhibition at 1.24 uM after 48 hrs by M27-A3 protocol based method relative to control; type: functional; settings: ATCC 90028, 48 h, read-out: GI
Candida albicans [6] = test: Fungicidal activity against Candida albicans ATCC 90028 assessed as log reduction in fungal load incubated for 48 hrs followed by replating on sabouraud dextrose agar plate and measured after 48 hrs; type: functional
Candida albicans [7] = test: Antifungal activity against Candida albicans ATCC 90028 assessed as planktonic growth inhibition at 4.97 uM after 48 hrs by M27-A3 protocol based method relative to control; type: functional; settings: ATCC 90028, 48 h, read-out: GI
Candida albicans [8] = test: Antifungal activity against Candida albicans ATCC 90028 assessed as planktonic growth inhibition at 2.49 uM after 48 hrs by M27-A3 protocol based method relative to control; type: functional; settings: ATCC 90028, 48 h, read-out: GI
Candida albicans [9] = test: Antifungal activity against Candida albicans ATCC 90028 assessed as planktonic growth inhibition at 9.94 uM after 48 hrs by M27-A3 protocol based method relative to control; type: functional; settings: ATCC 90028, 48 h, read-out: GI
Candida albicans [10] = test: Antifungal activity against Candida albicans ATCC 90028 assessed as planktonic growth inhibition at 39.77 uM after 48 hrs by M27-A3 protocol based method relative to control; type: functional; settings: ATCC 90028, 48 h, read-out: GI
Candida albicans [11] = test: Antifungal activity against Candida albicans ATCC 90028 assessed as planktonic growth inhibition at 19.88 uM after 48 hrs by M27-A3 protocol based method relative to control; type: functional; settings: ATCC 90028, 48 h, read-out: GI
Candida albicans [12] = test: Antifungal activity against Candida albicans ATCC 90028 assessed as planktonic growth inhibition at 2.77 uM after 48 hrs by M27-A3 protocol based method relative to control; type: functional; settings: ATCC 90028, 48 h, read-out: GI
Candida albicans [13] = test: Antifungal activity against Candida albicans ATCC 90028 assessed as planktonic growth inhibition at 1.38 uM after 48 hrs by M27-A3 protocol based method relative to control; type: functional; settings: ATCC 90028, 48 h, read-out: GI
Candida albicans [14] = test: Antifungal activity against Candida albicans ATCC 90028 assessed as planktonic growth inhibition at 0.09 uM after 48 hrs by M27-A3 protocol based method relative to control; type: functional; settings: ATCC 90028, 48 h, read-out: GI
Candida albicans [15] = test: Antifungal activity against Candida albicans ATCC 90028 assessed as planktonic growth inhibition at 11.07 uM after 48 hrs by M27-A3 protocol based method relative to control; type: functional; settings: ATCC 90028, 48 h, read-out: GI
Candida albicans [16] = test: Antifungal activity against Candida albicans ATCC 90028 assessed as planktonic growth inhibition at 44.26 uM after 48 hrs by M27-A3 protocol based method relative to control; type: functional; settings: ATCC 90028, 48 h, read-out: GI
Candida albicans [17] = test: Antifungal activity against Candida albicans ATCC 90028 assessed as planktonic growth inhibition at 22.13 uM after 48 hrs by M27-A3 protocol based method relative to control; type: functional; settings: ATCC 90028, 48 h, read-out: GI
Candida albicans [18] = test: Antifungal activity against Candida albicans ATCC 90028 assessed as planktonic growth inhibition at 0.17 uM after 48 hrs by M27-A3 protocol based method relative to control; type: functional; settings: ATCC 90028, 48 h, read-out: GI
Candida albicans [19] = test: Antifungal activity against Candida albicans ATCC 90028 assessed as planktonic growth inhibition at 5.53 uM after 48 hrs by M27-A3 protocol based method relative to control; type: functional; settings: ATCC 90028, 48 h, read-out: GI
Candida albicans [20] = test: Antifungal activity against Candida albicans ATCC 90028 assessed as planktonic growth inhibition at 0.69 uM after 48 hrs by M27-A3 protocol based method relative to control; type: functional; settings: ATCC 90028, 48 h, read-out: GI
Candida albicans [21] = test: Antifungal activity against Candida albicans ATCC 90028 assessed as planktonic growth inhibition at 0.35 uM after 48 hrs by M27-A3 protocol based method relative to control; type: functional; settings: ATCC 90028, 48 h, read-out: GI
Candida albicans [22] = test: Antifungal activity against Candida albicans ATCC 90028 assessed as planktonic growth inhibition at 0.71 uM after 48 hrs by M27-A3 protocol based method relative to control; type: functional; settings: ATCC 90028, 48 h, read-out: GI
Candida albicans [23] = test: Antifungal activity against Candida albicans ATCC 90028 assessed as planktonic growth inhibition at 11.38 uM after 48 hrs by M27-A3 protocol based method relative to control; type: functional; settings: ATCC 90028, 48 h, read-out: GI
Candida albicans [24] = test: Antifungal activity against Candida albicans ATCC 90028 assessed as planktonic growth inhibition at 22.76 uM after 48 hrs by M27-A3 protocol based method relative to control; type: functional; settings: ATCC 90028, 48 h, read-out: GI
Candida albicans [25] = test: Antifungal activity against Candida albicans ATCC 90028 infected in Galleria mellonella larvae assessed as induction of pathogen entrapping by haemocytes at 10 uL measured at 24 hrs interval for 144 hrs by HE staining based microscopic analysis; type: functional, organism-based
Candida albicans [26] = test: Antifungal activity against Candida albicans ATCC 90028 assessed as planktonic growth inhibition at 5.69 uM after 48 hrs by M27-A3 protocol based method relative to control; type: functional; settings: ATCC 90028, 48 h, read-out: GI
Candida albicans [27] = test: Antifungal activity against Candida albicans ATCC 90028 assessed as planktonic growth inhibition at 1.42 uM after 48 hrs by M27-A3 protocol based method relative to control; type: functional; settings: ATCC 90028, 48 h, read-out: GI
Candida albicans [28] = test: Antifungal activity against Candida albicans ATCC 90028 assessed as planktonic growth inhibition at 0.18 uM after 48 hrs by M27-A3 protocol based method relative to control; type: functional; settings: ATCC 90028, 48 h, read-out: GI
Candida albicans [29] = test: Antifungal activity against Candida albicans ATCC 90028 infected in Galleria mellonella larvae assessed as inhibition of fungus filamentation at 10 uL measured at 24 hrs interval for 144 hrs by HE staining based microscopic analysis; type: functional, organism-based
Candida albicans [30] = test: Antifungal activity against Candida albicans ATCC 90028 assessed as planktonic growth inhibition at 2.85 uM after 48 hrs by M27-A3 protocol based method relative to control; type: functional; settings: ATCC 90028, 48 h, read-out: GI
Candida albicans [31] = test: Antifungal activity against Candida albicans ATCC 90028 assessed as planktonic growth inhibition at 0.36 uM after 48 hrs by M27-A3 protocol based method relative to control; type: functional; settings: ATCC 90028, 48 h, read-out: GI
Candida albicans [32] = test: Antifungal activity against Candida albicans ATCC 90028 assessed as planktonic growth inhibition at 45.53 uM after 48 hrs by M27-A3 protocol based method relative to control; type: functional; settings: ATCC 90028, 48 h, read-out: GI
Candida albicans [33] = test: Cell cycle arrest in Candida albicans ATCC 90028 assessed as accumulation at G0/G1-phase by propidium iodide staining based flow cytometry; type: functional, organism-based
Candida albicans [34] = test: Antifungal activity against Candida albicans ATCC 90028 assessed as planktonic growth inhibition at 0.27 uM after 48 hrs by M27-A3 protocol based method relative to control; type: functional; settings: ATCC 90028, 48 h, read-out: GI
Candida albicans [35] = test: Antibiofilm activity against Candida albicans ATCC 90028 assessed as inhibition of biofilm formation […] after 24 hrs by XTT assay relative to control; type: functional, organism-based; settings: ATCC 90028, 24 h

## Clc1ccc(C2CCCN2CCCn2nnc(-c3ccccc3Cl)n2)cc1 (stereo not drawn)
Candida albicans [1]
  inhibition of growth at 0.62 µM: 99.2%
Candida albicans [2]
  inhibition of growth at 0.16 µM: 98.9%
Candida albicans [3]
  inhibition of growth at 0.31 µM: 99%
Candida albicans [4]
  inhibition of growth at 0.08 µM: 98.8%
Candida albicans [5]
  inhibition of growth at 1.24 µM: 99.2%
Candida albicans [6]
  log(activity): -0.4
Candida albicans [7]
  inhibition of growth at 4.97 µM: 99.3%
Candida albicans [8]
  inhibition of growth at 2.49 µM: 99.3%
Candida albicans [9]
  inhibition of growth at 9.94 µM: 99.4%
Candida albicans [10]
  inhibition of growth at 39.77 µM: 99.6%
Candida albicans [11]
  inhibition of growth at 19.88 µM: 99.5%

## Cc1ccc(-c2nnn(CCCN3CCCC3c3cccc(C)c3)n2)cc1 (stereo not drawn)
Candida albicans [12]
  inhibition of growth at 2.77 µM: 99.3%
Candida albicans [13]
  inhibition of growth at 1.38 µM: 98.9%
Candida albicans [14]
  inhibition of growth at 0.09 µM: 98.9%
Candida albicans [15]
  inhibition of growth at 11.07 µM: 98.8%
Candida albicans [16]
  inhibition of growth at 44.26 µM: 99%
Candida albicans [6]
  log(activity): -0.4
Candida albicans [17]
  inhibition of growth at 22.13 µM: 98.7%
Candida albicans [18]
  inhibition of growth at 0.17 µM: 98.9%
Candida albicans [19]
  inhibition of growth at 5.53 µM: 99.1%
Candida albicans [20]
  inhibition of growth at 0.69 µM: 98.9%
Candida albicans [21]
  inhibition of growth at 0.35 µM: 99%

## Fc1ccc(C2CCCN2CCCn2nnc(-c3ccccc3)n2)cc1 (stereo not drawn)
Candida albicans [22]
  inhibition of growth at 0.71 µM: 99.3%
Candida albicans [14]
  inhibition of growth at 0.09 µM: 99.2%
Candida albicans [23]
  inhibition of growth at 11.38 µM: 99.3%
Candida albicans [6]
  log(activity): -0.5
Candida albicans [24]
  inhibition of growth at 22.76 µM: 99.2%
Candida albicans [25]
  Activity: Active
Candida albicans [26]
  inhibition of growth at 5.69 µM: 99.3%
Candida albicans [27]
  inhibition of growth at 1.42 µM: 99.5%
Candida albicans [28]
  inhibition of growth at 0.18 µM: 99.2%
Candida albicans [29]
  inhibition: Active
Candida albicans [30]
  inhibition of growth at 2.85 µM: 99.3%
Candida albicans [31]
  inhibition of growth at 0.36 µM: 99.2%
Candida albicans [32]
  inhibition of growth at 45.53 µM: 99.5%
Candida albicans [33]
  Activity: Active

## C[C@@H]1[C@H](O)[C@@H](C)/C=C/C=C/C=C/C=C/C=C/C=C/C=C/[C@H](O[C@@H]2O[C@H](C)[C@@H](O)[C@H](N)[C@@H]2O)C[C@@H]2O[C@](O)(C[C@@H](O)C[C@@H](O)[C@H](O)CC[C@@H](O)C[C@@H](O)CC(=O)O[C@H]1C)C[C@H](O)[C@H]2C(=O)O [AMPHOTERICIN B]
Candida albicans [34]
  inhibition of growth at 0.27 µM: 100%
Candida albicans [35]
  IC50: 100 µM

— ChEMBL document CHEMBL4411303, “Synthesis of tetrazole derivatives bearing pyrrolidine scaffold and evaluation of their antifungal activity against Candida albicans” (Eur J Med Chem, 2019)
